Read-outs that look alike come from different tables or passages of the source.
Tests used:
[1] = test system: hypertriglyceridemia induced by carbohydrates in male rats; test: Action on the hypertriglyceridemia induced by carbohydrates (fructose) in male rats; assay type: in vivo; conditions: Rattus norvegicus, 72 h, 3-day oral pre-treatment, vs untreated control, read-out: Change in percentage of hypertriglyceridemia induced by carbohydrates
[2] = test system: normolipemic rats; test: Reduction of serum lipid values in normolipemic rats (8 days oral); assay type: in vivo, rat; conditions: 8 doses, male rats; for serum cholesterol, change in percentage (A: referred to the initial value) / serum triglyceride, change in percentage (A: referred to the initial value): column A; for serum cholesterol, change in percentage (B: referred to the untreated control group) / serum triglyceride, change in percentage (B: referred to the untreated control group): column B
Procedure: 1. Male rats having a normal serum lipid content were treated for eight days with different daily doses mentioned in Table 1. The values given in that Table stand for a change in the serum concentrations of certain lipid classes. The doses administered per os by means of an esophageal sound were 100, 30 and 10 mg/kg/day. Generally, prior to and after the treatment, blood samples were taken and the concentration of cholesterol in the serum was determined according to the method of Lauber and Richterich and that of triglycerides according to the method of Eggstein and Kreutz. In the examples of the following Table 1, the changes in the serum lipid values due to the treatment with the substances of the invention are defined as follows:
a. The changes in percent in the final value of the treated group, referred to the initial value of the treated group, the initial value being 100 percent, and
b. the change in the final value of the treated group, referred to the final value of an accompanying untreated control group, the untreated control group's value being defined as 100 percent. Thus, the value given in columns A is the change in percentage referred to the initial value, whereas the value given in columns B is the change in percentage of the treated group, referred to the untreated control group.

[3] = test system: dietetic-medicamentous hyperlipemia of male rats; test: Action on the dietetic-medicamentous hyperlipemia of male rats; assay type: in vivo; conditions: Rattus norvegicus, po, 192 h, 100 mg/kg/day p.o., 8 days, male rats on cholesterol diet
Source text: All the animals were fed with a diet food containing 2% of cholesterol, 2% of sodium cholate, 0.3% of methyl-thiouracil, 20% of coco fat and 44% of cane sugar. The serum lipid concentration of the animals treated with the compounds of the invention was compared to that of an untreated control group on the same diet, which diet causes the serum cholesteral concentration to rise within 1 week to about 10 times the initial value, that of the serum triglycerides to 3 times and that of the phospho-lipids in the serum to 4 times the initial value. The lipid phosphorus was determined according to the method of Messrs. Boehringer Mannheim W. Germany. At the same time as the diet was offered, the compounds of the invention were administered once a day to groups of rats, each containing 10 animals, over a period of 8 days by means of an esophageal sound. The change in percentage in the serum lipid concentration as compared to the control group (diet without active substance) is indicated in Table 2.

[4] = in vivo; conditions: mouse, po
[5] = test system: mice; conditions: Table 3
[6] = test system: rats that had been fed fructose doses; test: Hypoglycemic activity: lowering of the blood sugar level in rats fed fructose doses; assay type: in vivo, rat; conditions: 100 mg/kg once a day over 3 days, 24 hours after last administration, vs placebo control group
Procedure: The hypoglycemic activity of some bis(4-hydroxy-phenyl) alkanoic acid derivatives of formulae I and II could be established by administering once a day, over 3 days, 100 mg of the active compound per kg of test animal to rats that had been fed fructose doses and by taking blood samples 24 hours after the last administration in order to determine the blood sugar level by means of an autoanalyzer.
The lowering of the blood sugar content indicated in following Table 4 refers to a control group treated with placebos (blank doses).

[7] = read-out: serum cholesterol, change in percentage as compared to the control group
[8] = read-out: serum lipid phosphorus, change in percentage as compared to the control group
[9] = read-out: serum triglyceride, change in percentage as compared to the control group

Row | SMILES | change in vivo at 30 mg/kg [1] | serum cholesterol, change in percentage (A: referred to the initial value) ([2]; 100 mg/kg/day p.o.) | serum triglyceride, change in percentage (A: referred to the initial value) ([2]; 100 mg/kg/day p.o.) | serum cholesterol, change in percentage (B: referred to the untreated control group) ([2]; 100 mg/kg/day p.o.) | serum triglyceride, change in percentage (B: referred to the untreated control group) ([2]; 100 mg/kg/day p.o.) | change in vivo at 100 mg/kg [3, 7] | change in vivo at 100 mg/kg [3, 8] | change in vivo at 100 mg/kg [3, 9] | LD50 [4] | change in vivo at 100 mg/kg [1] | other results
1 | CC(C)(C)c1cc(C(C)(CC(=O)OCCOC(=O)CC(C)(c2ccc(O)c(C(C)(C)C)c2)c2ccc(O)c(C(C)(C)C)c2)c2ccc(O)c(C(C)(C)C)c2)ccc1O [Example 16, Bis [3,3-bis(4'-hydroxy-3'-tert.-butyl-phenyl)butanoic acid] glycol ester] | -24% | -20% | -27% | -21% | -26% | – | – | – | – | – | serum cholesterol, change in percentage (A: referred to the initial value) ([2]; 30 mg/kg/day p.o.): -10%; serum cholesterol, change in percentage (B: referred to the untreated control group) ([2]; 30 mg/kg/day p.o.): -15%; serum triglyceride, change in percentage (B: referred to the untreated control group) ([2]; 30 mg/kg/day p.o.): -32%
2 | CC(C)(C)c1cc(C(C)(CCC(=O)O)c2ccc(O)c(C(C)(C)C)c2)ccc1O [Example 14, 4,4-Bis(4'-hydroxy-3'-tert.-butyl-phenyl)pentanoic acid] | – | – | – | – | – | -36% | -25% | -13% | 4000 mg/kg | – | –
3 | CC(C)(C)c1cc(C(C(=O)O)c2ccc(O)c(C(C)(C)C)c2)ccc1O [Example 4, Bis(4'-hydroxy-3'-tert.-butyl-phenyl)ethanoic acid] | – | – | – | – | – | -29% | -25% | -21% | – | – | –
4 | CCCCOC(=O)CC(C)(c1ccc(O)c(C)c1)c1ccc(O)c(C)c1 [Example 8, 3,3-bis(4'-hydroxy-3'-methyl-phenyl)butanoic acid n-butyl ester] | – | -43% | -23% | -26% | – | -36% | -37% | -39% | > 8000 mg/kg | – | LD50 mice p.o. [5]: > 8000 mg/kg; serum cholesterol, change in percentage (B: referred to the untreated control group) ([2]; 10 mg/kg/day p.o.): -13%; serum triglyceride, change in percentage (B: referred to the untreated control group) ([2]; 10 mg/kg/day p.o.): -25%; serum cholesterol, change in percentage (A: referred to the initial value) ([2]; 30 mg/kg/day p.o.): -14%; serum cholesterol, change in percentage (B: referred to the untreated control group) ([2]; 30 mg/kg/day p.o.): -16%; serum triglyceride, change in percentage (B: referred to the untreated control group) ([2]; 30 mg/kg/day p.o.): -22%
5 | Cc1cc(C(C)(CC(=O)O)c2ccc(O)c(C)c2)ccc1O [Example 1, 3,3-Bis(4'-hydroxy-3'-methyl-phenyl)butanoic acid] | – | – | – | – | – | -11% | -15% | -18% | – | – | –
6 | CC(CCC(=O)O)(c1ccc(O)cc1)c1ccc(O)cc1 [Example 19, 4,4-Bis(4'-hydroxy-phenyl)pentanoic acid] | – | – | – | – | – | -17% | -17% | -28% | – | -27% | lowering of the blood sugar level in per cent [6]: -20 per cent
7 | CCCCOC(=O)CCC(C)(c1ccc(O)c(C(C)(C)C)c1)c1ccc(O)c(C(C)(C)C)c1 [Example 15, 4,4-Bis(4'-hydroxy-3'-tert.-butyl-phenyl)pentanoic acid n-butyl ester] | – | -37% | -36% | -20% | -13% | -57% | -53% | -34% | > 8000 mg/kg | -28% | LD50 mice p.o. [5]: > 8000 mg/kg; serum triglyceride, change in percentage (A: referred to the initial value) ([2]; 10 mg/kg/day p.o.): -20%; serum triglyceride, change in percentage (B: referred to the untreated control group) ([2]; 10 mg/kg/day p.o.): -34%; serum cholesterol, change in percentage (A: referred to the initial value) ([2]; 30 mg/kg/day p.o.): -13%; serum triglyceride, change in percentage (A: referred to the initial value) ([2]; 30 mg/kg/day p.o.): -32%; serum cholesterol, change in percentage (B: referred to the untreated control group) ([2]; 30 mg/kg/day p.o.): -10%; serum triglyceride, change in percentage (B: referred to the untreated control group) ([2]; 30 mg/kg/day p.o.): -37%
8 | CC(C)(C)c1cc(C(C)(CC(=O)OCCCCCCOC(=O)CC(C)(c2ccc(O)c(C(C)(C)C)c2)c2ccc(O)c(C(C)(C)C)c2)c2ccc(O)c(C(C)(C)C)c2)ccc1O [Example 17, Bis [3,3-bis(4'-hydroxy-3'-tert.-butyl-phenyl)butanoic acid]hexane-diol-1,6ester] | – | – | – | – | – | – | – | – | > 8000 mg/kg | -10% | lowering of the blood sugar level in per cent [6]: -18 per cent
9 | CC(C)(C)c1cc(C(C)(CC(=O)OCCOC(=O)CC(C)(c2cc(Br)c(O)c(C(C)(C)C)c2)c2cc(Br)c(O)c(C(C)(C)C)c2)c2cc(Br)c(O)c(C(C)(C)C)c2)cc(Br)c1O [Example 21, Bis [3,3-bis(4'-hydroxy-3'-tert.-butyl-5'-bromophenyl)butanoic acid] glycol ester] | – | – | – | – | – | – | – | – | 4090 mg/kg | – | –
10 | CCCCNC(=O)CC(C)(c1ccc(O)c(C(C)(C)C)c1)c1ccc(O)c(C(C)(C)C)c1 [Example 13, 3,3-Bis(4'-hydroxy-3'-tert.-butyl-phenyl)butanoic acid n-butylamide] | -17% | – | – | – | – | – | – | – | 8000 mg/kg | – | –
11 | CCCCOC(=O)C(c1ccc(O)c(C(C)(C)C)c1)c1ccc(O)c(C(C)(C)C)c1 [Example 5, Bis(4'-hydroxy-3'-tert.-butyl-phenyl)ethanoic acid n-butyl ester] | – | – | – | – | – | – | – | – | – | – | lowering of the blood sugar level in per cent [6]: -30 per cent
12 | CCOC(=O)C(C)(C)Oc1ccc(Cl)cc1 [Clofibrat, reference compound] | – | -22% | -48% | -15% | -37% | 0% | -12% | -27% | – | -15% | LD50 ([4]; LD50 mice p.o., mice, Table 3): 2000 to 2500 mg/kg; LD50 ([4]; p.o. LD50 mice, mice, Table 2): 2000 to 25000 mg/kg
13 | CCCCOC(=O)CC(C)(c1ccc(O)c(C(C)(C)C)c1)c1ccc(O)c(C(C)(C)C)c1 [Example 7, 3,3-bis(4'-hydroxy-3'-tert.-butyl-phenyl)butanoic acid butyl ester] | -19% | -29% | -53% | -26% | -23% | -30% | -30% | -34% | > 8000 mg/kg | -35% | LD50 mice p.o. [5]: > 8000 mg/kg; lowering of the blood sugar level in per cent [6]: -24 per cent
14 | CC(C)(C)c1cc(C(C)(CC(=O)O)c2ccc(O)c(C(C)(C)C)c2)ccc1O [Example 2, 3,3-Bis(4'-hydroxy-3'-tert.-butyl-phenyl)butanoic acid] | -63% | – | – | – | – | -19% | -9% | -13% | 2000 mg/kg | – | –
15 | CC(C)(C)c1cc(C(C)(CCC(=O)OCCOC(=O)CCC(C)(c2ccc(O)c(C(C)(C)C)c2)c2ccc(O)c(C(C)(C)C)c2)c2ccc(O)c(C(C)(C)C)c2)ccc1O [Example 18, Bis [4,4-bis(4'hydroxy-3'-tert.-butyl-phenyl)pentanoic acid] glycol ester] | -34% | -48% | -51% | -33% | -17% | -36% | -37% | -19% | 4340 mg/kg | -46% | –
